Assay results published in patent publication US9498463B2, “Compound obtained from gamboge resin, and medical uses of the same” (priority 2010, dated 2016).
Values after ≈ are worked out from the molar mass of the structure shown.

Experiments:
[1] = test system: Human breast adenocarcinoma cell MCF7; test: cells; details: Homo sapiens; for IC50: MCF7, read-out: IC50 (50% inhibition concentration); for CC50: MCF7, read-out: LC50 (50% lethal concentration)
Source text: (§1) In Vitro Anti-Cancer Test
(§2) The in vitro anti-cancer test was primarily used to detect the effect of a candidate drug on cancer cell proliferation. The working principle involved therein is the ability of viable cells to shift alamarBlue (AbD Serotec, UK) from its originally non-fluorescent oxidized state (non-fluorescent, blue) to a reduced form (fluorescent, red) having fluorescence via metabolic reaction. According to the fluorescent data result generated by the alamarBlue reagent thus obtained, the proliferation of the viable cells and cell activity can be quantified for detection.
(§3) In the in vitro anti-cancer tests, a candidate drug was tested at 5 different concentrations of 0.01, 0.1, 1, 10, and 100 μg/ml, and six human cancer cell lines and a normal human cell line were used (see Table 5).

[2] = in vitro
Source text: as §1, §2, §3

[3] = test system: Human umbilical venal epithelial cell (HUVEC); test: cells; details: Homo sapiens, HUVEC, read-out: IC50 (50% inhibition concentration)
Source text: as §1, §2, §3

[4] = test system: Human colon adenocarcinoma cell HT-29; test: cells; details: for IC50: HT-29, read-out: IC50 (50% inhibition concentration); for CC50: HT-29, read-out: LC50 (50% lethal concentration)
Source text: as §1, §2, §3

[5] = test system: Human lung carcinoma cell A549; test: cells; details: for IC50: A549, read-out: IC50 (50% inhibition concentration); for CC50: A549, read-out: LC50 (50% lethal concentration)
Source text: as §1, §2, §3

[6] = test system: Human hepatocellular carcinoma cell HepG2; test: cells; details: for IC50: HepG2, read-out: IC50 (50% inhibition concentration); for CC50: HepG2, read-out: LC50 (50% lethal concentration)
Source text: as §1, §2, §3

[7] = test system: Human histocytic lymphoma cell U937; test: cells; details: for IC50: U-937, read-out: IC50 (50% inhibition concentration); for CC50: U-937, read-out: LC50 (50% lethal concentration)
Source text: as §1, §2, §3

[8] = test system: Human promyelocytic leukemia cell HL-60; test: cells; details: for IC50: HL-60, read-out: IC50 (50% inhibition concentration); for CC50: HL-60, read-out: LC50 (50% lethal concentration)
Source text: as §1, §2, §3

| SMILES | IC50 [1] | CC50 [1] | CC50 [2] | IC50 [3] | IC50 [4] | CC50 [4] | IC50 [5] | CC50 [5] | IC50 [6] | CC50 [6] | IC50 [7] | CC50 [7] | IC50 [8] | CC50 [8] |
| --- | --- | --- | --- | --- | --- | --- | --- | --- | --- | --- | --- | --- | --- | --- |
| CC(C)=CCc1c2c(c(O)c3c1O[C@@]1(C)CCC4C3C1C4(C)C)C(=O)C1=C[C@@H]3CC4C(C)(C)O[C@](C/C=C(/C)C(=O)O)(C3=O)[C@@]14O2 [Gh-2607-1A] | 0.12 µg/mL (≈ 0.191 µM) | 1.5 µg/mL (≈ 2.39 µM) | 1.5 µg/mL (≈ 2.39 µM) | 0.43 µg/mL (≈ 0.684 µM) | 0.24 µg/mL (≈ 0.382 µM) | 0.84 µg/mL (≈ 1.34 µM) | 0.19 µg/mL (≈ 0.302 µM) | 0.45 µg/mL (≈ 0.716 µM) | 0.43 µg/mL (≈ 0.684 µM) | 3.9 µg/mL (≈ 6.2 µM) | 0.15 µg/mL (≈ 0.239 µM) | 0.37 µg/mL (≈ 0.588 µM) | 0.49 µg/mL (≈ 0.779 µM) | 2.6 µg/mL (≈ 4.14 µM) |
| CC(C)=CCC[C@]1(C)C=Cc2c(O)c3c(c(CC=C(C)C)c2O1)O[C@]12C(=CC4CC1C(C)(C)O[C@]2(C/C=C(/C)C(=O)O)C4=O)C3=O [Gh-2605, gambogic acid] | 4.4 µg/mL (≈ 7 µM) | 5.9 µg/mL (≈ 9.38 µM) | 1.6 µg/mL (≈ 2.54 µM) | 0.098 µg/mL (≈ 0.156 µM) | 0.18 µg/mL (≈ 0.286 µM) | 0.61 µg/mL (≈ 0.97 µM) | 0.12 µg/mL (≈ 0.191 µM) | 0.37 µg/mL (≈ 0.588 µM) | 0.23 µg/mL (≈ 0.366 µM) | 3.5 µg/mL (≈ 5.57 µM) | 0.76 µg/mL (≈ 1.21 µM) | 2.9 µg/mL (≈ 4.61 µM) | 0.17 µg/mL (≈ 0.27 µM) | 2.9 µg/mL (≈ 4.61 µM) |
| CC(C)=CCC[C@]1(C)C[C@H](O)c2c(O)c3c(c(CC=C(C)C)c2O1)O[C@]12C(=C[C@@H]4CC1C(C)(C)O[C@]2(C/C=C(/C)C(=O)O)C4=O)C3=O [Gh-2641-1, neogambogic acid] | 0.2 µg/mL (≈ 0.309 µM) | 3.5 µg/mL (≈ 5.41 µM) | 4.3 µg/mL (≈ 6.65 µM) | 0.54 µg/mL (≈ 0.835 µM) | 2.6 µg/mL (≈ 4.02 µM) | 6.8 µg/mL (≈ 10.5 µM) | 0.15 µg/mL (≈ 0.232 µM) | 0.22 µg/mL (≈ 0.34 µM) | 1.7 µg/mL (≈ 2.63 µM) | 4.6 µg/mL (≈ 7.11 µM) | 0.26 µg/mL (≈ 0.402 µM) | 1 µg/mL (≈ 1.55 µM) | 0.18 µg/mL (≈ 0.278 µM) | 4.5 µg/mL (≈ 6.96 µM) |
| CC(C)=CCc1c2c(c(O)c3c1O[C@]14C(=C[C@@H]5CC1C(C)(C)O[C@]4(C/C=C(\C)C=O)C5=O)C3=O)C=CC(C)(C)O2 [Gh-2501, isomorellin] | 1.3 µg/mL (≈ 2.39 µM) | 3.7 µg/mL (≈ 6.79 µM) | 1.8 µg/mL (≈ 3.3 µM) | 0.26 µg/mL (≈ 0.477 µM) | 2.1 µg/mL (≈ 3.86 µM) | 4 µg/mL (≈ 7.34 µM) | 0.61 µg/mL (≈ 1.12 µM) | 2.1 µg/mL (≈ 3.86 µM) | 2.2 µg/mL (≈ 4.04 µM) | 4.5 µg/mL (≈ 8.26 µM) | 0.9 µg/mL (≈ 1.65 µM) | 3.1 µg/mL (≈ 5.69 µM) | 1 µg/mL (≈ 1.84 µM) | 4 µg/mL (≈ 7.34 µM) |
| CC(C)=CCC/C(C)=C/Cc1c(O)c(CC=C(C)C)c2c(c1O)C(=O)C1=CC3CC4C(C)(C)O[C@](CC=C(C)C)(C3=O)[C@@]14O2 (stereo in doubt) [Gh-4301, desoxygambogenin] | 19 µg/mL (≈ 31.6 µM) | 56 µg/mL (≈ 93.2 µM) | 1.3 µg/mL (≈ 2.16 µM) | 0.29 µg/mL (≈ 0.483 µM) | 13 µg/mL (≈ 21.6 µM) | 42 µg/mL (≈ 69.9 µM) | 0.51 µg/mL (≈ 0.849 µM) | 6.2 µg/mL (≈ 10.3 µM) | 12 µg/mL (≈ 20 µM) | 51 µg/mL (≈ 84.9 µM) | 11 µg/mL (≈ 18.3 µM) | > 100 µg/mL | 3.5 µg/mL (≈ 5.83 µM) | > 100 µg/mL |
| C=C(C)[C@@H]1CC[C@@]2(C)CC1c1c(O)c3c(c(CC=C(C)C)c1O2)O[C@]12C(=C[C@@H]4CC1C(C)(C)O[C@]2(/C=C/C(C)C(=O)O)C4=O)C3=O (stereo partly drawn) [Gh-2507, 3-butenoic acid, 2-methyl-4-[(1R,3aS,5S,9S,10R,13S,16aS)-3a,4,5,7,10,11,12,13-octahydro-8-hydroxy-3,3,13-trimethyl-15-(3-methyl-2-butenyl)-10-(1-methylethenyl)-7,18-dioxo-1,5:9,13-dimethano-1H,3H,9H-furo[3.4-g]oxocino[3.2-b]xanthen-1-yl],(3E)-] | 0.19 µg/mL (≈ 0.302 µM) | 2.2 µg/mL (≈ 3.5 µM) | 21 µg/mL (≈ 33.4 µM) | 0.41 µg/mL (≈ 0.652 µM) | 1.6 µg/mL (≈ 2.54 µM) | 8.6 µg/mL (≈ 13.7 µM) | 0.13 µg/mL (≈ 0.207 µM) | 0.53 µg/mL (≈ 0.843 µM) | 1.7 µg/mL (≈ 2.7 µM) | 7.1 µg/mL (≈ 11.3 µM) | 0.45 µg/mL (≈ 0.716 µM) | 2.7 µg/mL (≈ 4.29 µM) | 0.2 µg/mL (≈ 0.318 µM) | 5.3 µg/mL (≈ 8.43 µM) |
